Data taken from patent publication US20160282364A1, “ASSAY FOR INSULIN-DEGRADING ENZYME (IDE) INHIBITORS” (PRESIDENT AND FELLOWS OF HARVARD COLLEGE, priority 2013, published 2016).
Entries after “also recorded” stand apart in the source; their conditions may differ.

How the values were obtained:
[1] = Plasma stability (1 h incubation); format: in vitro ADME; conditions: after 1 h
[2] = Liver microsome stability (1 h incubation); format: in vitro ADME; conditions: after 1 h
[3] = Plasma protein binding assay; format: in vitro ADME
[4] = Tissue distribution by stable isotope dilution LC-MS; format: in vivo, mouse; conditions: mice, 80 mg/kg i.p.
Experimental: Stable isotope dilution LC-MS, pharmacokinetics, and tissue distribution measurements. […] Tissue samples ( 100 mg) fromb 6K-treated mice and vehicle controls were weighed and disrupted in Dounce homogenizers with PBS buffer (0.5 mL/100 mg sample), supplemented with 5 μM heavy-6bK and protease inhibitor cocktail (1 tablet/50 mL PBS, Roche diagnostics). The lysate was incubated on ice for 30 min, sonicated 5 min and centrifuged at 13,000 g for 5 min. The bulk of supernatant proteins were precipitated by denaturation at 95° C. for 5 min, removed by centrifugation.

GCGR−/− mice = test: Glucose tolerance tests in glucagon receptor knockout mice; format: in vivo, mouse; conditions: 80 mg/kg
Text: In vivo studies, general information. Wild-type C57BL/6J and diet-induced obese (DIO) C57BL/6J age-matched male adult mice were purchased from Jackson Laboratories. The age range was 13 to 15 weeks for lean mice, and 24 to 26 weeks for DIO mice. All animals were individually housed on a 14-h light, 10-h dark schedule at the Biology Research Infrastructure (BRI), Harvard University. Cage enrichment included cotton bedding and a red plastic hut. Water and food were available ad libitum, consisting respectively of normal chow (Prolab® RHM 3000) or high-fat diet (60 kcal % fat, D12492, Research Diets Inc.). […]
Glucose tolerance tests GTT and blood glucose measurements. […] Blood glucose was measured using AccuCheck® meters (Aviva) from blood droplets obtained from a small nick at the tip of the tail, at timepoints −45, 0, 15, 30, 45, 60, 90 and 120 min with reference to the time of glucose injection. The area of the blood glucose response profile curve corresponding to each animal was calculated by the trapezoid method^17, using as reference each individual baseline blood glucose measurement prior to glucose administration (t=0). […]

mice = test: Blood pressure and heart rate in mouse CGRP model; format: in vivo
Experimental: CGRP is a potent microvascular vasodilator widely expressed in the central and peripheral nervous systems of vertebrates. Administration of CGRP resulting in supraphysiological plasma levels of CGRP results in temporary vasodilation, hypotension, and an increased heart rate.
Nine mice received 250 ng CGRP intravenously (t=0). […] The other five received a control injection of vehicle only.
In addition,the lower panel of FIG. 19 demonstates that the increase in heart rate observed initially after CGRP administration is similar in both groups, but that the heart rate remains […] and the heart change rate is decreased in 6bK-administered mice as compared to controls.

[5] = biological target: T1, endogenous IDE in mouse plasma (Mus musculus, UniProt Q9JHR7, L174F/R633G/V509I/Y332H); test: LC-MS assay for ex vivo degradation of CGRP in mouse plasma; format: biochemical; conditions: CGRP 10 μM
T1 construct: endogenous IDE in mouse plasma; from tissue; host or cells: mouse plasma
Experimental: All data points and error bars represent mean±SEM. Significance tests were performed using two-tail Student's t-test, and significance levels shown in the figures are p<0.05 (*) or p<0.01 (**) versus the vehicle-only control group. The in vitro selection of the DNA-templated macrocycle libraryl^16,17 used 20 μg His6-tagged mouse IDE immobilized on cobalt magnetic beads (Dynabeads, Invitrogen). IDE proteolytic activity was assayed with fluorogenic peptide Mca-[…](Dnp)-OH (R&D). IDE inhibition was confirmed using an anti-insulin antibody time-resolved FRET assay (Cysbio), and using an LCMS assay for CGRP cleavage fragments CGRP1-17 and CGRP18-37 in plasma^18. […] IDE degradation assays for insulin and calcitonin-gene related peptide (CGRP). […] Fluorescence was measured using a Tecan Safire 2 plate reader (excitation=320 nm, emission=665 and 620 nm, lag time=60 μs) according the assay manufacturer's recommendations. Degradation of CGRP by endogenous IDE in mouse plasma was analyzed by LC-MS for the formation of CGRP1-17 and CGRP18-37 as previously reported^6.

T1 sequence (Q9JHR7 whole entry L174F/Y332H/V509I/R633G): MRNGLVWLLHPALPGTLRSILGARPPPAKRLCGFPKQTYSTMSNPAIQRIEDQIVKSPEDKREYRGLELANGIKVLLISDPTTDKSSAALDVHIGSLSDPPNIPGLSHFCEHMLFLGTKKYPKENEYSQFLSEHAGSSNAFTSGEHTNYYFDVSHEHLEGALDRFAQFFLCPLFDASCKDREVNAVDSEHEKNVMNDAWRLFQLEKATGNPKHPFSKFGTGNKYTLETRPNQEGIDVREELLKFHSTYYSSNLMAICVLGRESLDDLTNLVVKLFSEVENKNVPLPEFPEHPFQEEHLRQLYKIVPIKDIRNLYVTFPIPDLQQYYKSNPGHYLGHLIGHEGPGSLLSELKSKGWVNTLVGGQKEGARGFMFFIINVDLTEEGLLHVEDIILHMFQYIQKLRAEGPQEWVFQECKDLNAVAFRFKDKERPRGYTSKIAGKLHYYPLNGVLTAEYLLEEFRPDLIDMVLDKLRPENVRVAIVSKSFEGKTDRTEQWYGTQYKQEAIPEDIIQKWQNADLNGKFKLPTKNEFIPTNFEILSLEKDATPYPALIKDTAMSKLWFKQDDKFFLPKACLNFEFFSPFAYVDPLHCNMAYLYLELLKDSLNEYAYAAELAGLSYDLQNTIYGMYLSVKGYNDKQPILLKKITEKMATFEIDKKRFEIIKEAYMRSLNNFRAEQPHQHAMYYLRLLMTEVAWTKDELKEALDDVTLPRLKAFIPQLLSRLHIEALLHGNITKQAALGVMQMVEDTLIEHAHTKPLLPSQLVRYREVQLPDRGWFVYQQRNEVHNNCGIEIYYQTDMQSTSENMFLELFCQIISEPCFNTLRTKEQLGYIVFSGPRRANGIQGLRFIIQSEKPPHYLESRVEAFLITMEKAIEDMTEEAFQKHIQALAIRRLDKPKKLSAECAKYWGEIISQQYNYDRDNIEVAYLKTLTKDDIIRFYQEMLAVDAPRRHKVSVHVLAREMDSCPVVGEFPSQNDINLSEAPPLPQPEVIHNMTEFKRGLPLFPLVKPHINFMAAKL

Structure (SMILES)	remaining after incubation with plasma [1] [%]	remaining after incubation with liver microsome preparations [2] [%]	unbound in plasma protein binding assay [3] [%]	biodistribution into plasma, liver, kidney, and pancreatic tissues [4]	detection in the brain ([4]; 10-fold concentrated samples)	response to i.p. injected glucose (GCGR−/− mice; 6bK vs vehicle)	oral glucose tolerance (GCGR−/− mice; vs vehicle)	return of blood pressure to baseline / duration of CGRP-induced hypotension (mice; 1 mg 6bK i.p. 30 min before 250 ng CGRP i.v.)	baseline blood pressure (mice; mice, 1 mg 6bK i.p., vs vehicle)	baseline heart rate (mice; mice, 1 mg 6bK, vs control)	inhibition of IDE proteolytic activity, calcitonin-gene related peptide LC-MS assay [5]
NCCCC[C@@H]1NC(=O)/C=C/C(=O)N[C@H](C(N)=O)CCCCNC(=O)[C@@H](Cc2ccc(C(=O)c3ccccc3)cc2)NC(=O)[C@H](CC2CCCCC2)NC1=O [Compound 6bK]	74	78	~6	prompt biodistribution	did not detect	virtually identical	improvement	slower kinetics; also recorded: increases the duration	reduced; also recorded: lowered	reduced	
NC(=O)CCC1NC(=O)C=CC(=O)NC(C(N)=O)CCCCNC(=O)C(Cc2ccc(C(=O)c3ccccc3)cc2)NC(=O)C(CC2CCCCC2)NC1=O (centres unmarked) [Compound 6b]											confirmed
